Reference: article PMC8312697, “Mechanistic Investigations Support Liver Safety of Ubrogepant” (Toxicological Sciences, 2020)

Tests used:
NTCP = target: T1, NTCP (Homo sapiens, UniProt Q14973); test: NTCP uptake transporter inhibition assay; format: cell-based; details: for inhibition of NTCP-mediated probe substrate transport: uptake transporter inhibition assay
T1 construct: expressed in transfected cells; host or cells: CHO (telcagepant); HEK293 (ubrogepant, MK-3207)
T1 sequence (Q14973 1-349): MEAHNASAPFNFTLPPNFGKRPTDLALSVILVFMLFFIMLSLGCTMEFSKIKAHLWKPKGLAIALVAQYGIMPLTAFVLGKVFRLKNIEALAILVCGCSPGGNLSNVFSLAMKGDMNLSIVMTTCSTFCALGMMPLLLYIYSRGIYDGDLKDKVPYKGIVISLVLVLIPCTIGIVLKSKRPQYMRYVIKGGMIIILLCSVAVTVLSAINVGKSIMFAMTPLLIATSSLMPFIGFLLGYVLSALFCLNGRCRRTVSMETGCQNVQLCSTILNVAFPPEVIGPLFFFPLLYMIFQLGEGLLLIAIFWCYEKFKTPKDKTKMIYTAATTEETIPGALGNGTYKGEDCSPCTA
Experimental: To assess the functional impact of ubrogepant on the human ABC efflux transporters BSEP, MRP3, and MRP4, in vitro vesicular transport inhibition assays were conducted by Solvo Biotechnology (Szeged, Hungary). The ability of ubrogepant to inhibit the BSEP-mediated transport (and accumulation) of a probe substrate was tested at concentrations ranging from 0.04 – 30 μM, where the latter defined the upper limit of compound solubility in the BSEP assay buffer. For the MRP3 and MRP4 vesicle-based transporter assessments, ubrogepant concentrations of 0.1 to 70 μM were used. To assess the functional impact of ubrogepant on the human SLC (uptake) transporter NTCP, in vitro experiments were performed using HEK293 cells stably expressing NTCP. The ability of ubrogepant to inhibit NTCP-mediated uptake (and accumulation) of taurocholate was tested at concentrations ranging from 0.04 – 30 μM.
To assess the functional impact of MK-3207 on the human ABC efflux transporters BSEP, MRP3 and MRP4, in vitro vesicular transport inhibition assays were conducted by Solvo Biotechnology (Szeged, Hungary) and overseen by DSSI. BSEP transport was assessed in the presence of 0.5-30 µM MK-3207; MRP3 and MRP4 transport was assessed in the presence of 0.11-80 µM MK-3207. The upper limits of these ranges were determined by compound solubility in each assay buffer. NTCP transporter inhibition was assessed in NTCP-expressing HEK293 cells in the presence of 0.03 – 25 µM MK-3207.

[1] = target: T2, bile salt export pump (BSEP) (Homo sapiens, UniProt O95342); test: HEPATOPAC taurocholic acid transport / bile acid excretion; format: cell-based
T2 construct: host or cells: human hepatocytes in HEPATOPAC micropatterned co-culture
Description: The human HEPATOPAC model was also used to measure the effects of test agents on transport of taurocholic acid as an indicator of altered bile salt export pump (BSEP) function ([Li et al., 2017]). Safe dose perspective is gained from comparing in vitro concentration response results to calculated liver inlet Cmax (maximum plasma concentration).

[2] = system: Nrf2 oxidative stress and Nrf1 proteasomal stress pathways; test: In vitro rat HEPATOPAC gene expression BA-LRA; format: cell-based; details: 50 μM
[3] = system: HEPATOPAC hepatocyte coculture; test: HEPATOPAC urea synthesis (mitochondrial function); format: cell-based, rat; details: 50 µM
Experimental: Effects of test agents on mitochondrial function were assessed from media collected in the same HEPATOPAC studies by monitoring urea synthesis rates ([Khetani et al., 2013]).

dog = test: Conventional nonclinical toxicology study, dog; details: 1M dog

T2 sequence (O95342 whole entry): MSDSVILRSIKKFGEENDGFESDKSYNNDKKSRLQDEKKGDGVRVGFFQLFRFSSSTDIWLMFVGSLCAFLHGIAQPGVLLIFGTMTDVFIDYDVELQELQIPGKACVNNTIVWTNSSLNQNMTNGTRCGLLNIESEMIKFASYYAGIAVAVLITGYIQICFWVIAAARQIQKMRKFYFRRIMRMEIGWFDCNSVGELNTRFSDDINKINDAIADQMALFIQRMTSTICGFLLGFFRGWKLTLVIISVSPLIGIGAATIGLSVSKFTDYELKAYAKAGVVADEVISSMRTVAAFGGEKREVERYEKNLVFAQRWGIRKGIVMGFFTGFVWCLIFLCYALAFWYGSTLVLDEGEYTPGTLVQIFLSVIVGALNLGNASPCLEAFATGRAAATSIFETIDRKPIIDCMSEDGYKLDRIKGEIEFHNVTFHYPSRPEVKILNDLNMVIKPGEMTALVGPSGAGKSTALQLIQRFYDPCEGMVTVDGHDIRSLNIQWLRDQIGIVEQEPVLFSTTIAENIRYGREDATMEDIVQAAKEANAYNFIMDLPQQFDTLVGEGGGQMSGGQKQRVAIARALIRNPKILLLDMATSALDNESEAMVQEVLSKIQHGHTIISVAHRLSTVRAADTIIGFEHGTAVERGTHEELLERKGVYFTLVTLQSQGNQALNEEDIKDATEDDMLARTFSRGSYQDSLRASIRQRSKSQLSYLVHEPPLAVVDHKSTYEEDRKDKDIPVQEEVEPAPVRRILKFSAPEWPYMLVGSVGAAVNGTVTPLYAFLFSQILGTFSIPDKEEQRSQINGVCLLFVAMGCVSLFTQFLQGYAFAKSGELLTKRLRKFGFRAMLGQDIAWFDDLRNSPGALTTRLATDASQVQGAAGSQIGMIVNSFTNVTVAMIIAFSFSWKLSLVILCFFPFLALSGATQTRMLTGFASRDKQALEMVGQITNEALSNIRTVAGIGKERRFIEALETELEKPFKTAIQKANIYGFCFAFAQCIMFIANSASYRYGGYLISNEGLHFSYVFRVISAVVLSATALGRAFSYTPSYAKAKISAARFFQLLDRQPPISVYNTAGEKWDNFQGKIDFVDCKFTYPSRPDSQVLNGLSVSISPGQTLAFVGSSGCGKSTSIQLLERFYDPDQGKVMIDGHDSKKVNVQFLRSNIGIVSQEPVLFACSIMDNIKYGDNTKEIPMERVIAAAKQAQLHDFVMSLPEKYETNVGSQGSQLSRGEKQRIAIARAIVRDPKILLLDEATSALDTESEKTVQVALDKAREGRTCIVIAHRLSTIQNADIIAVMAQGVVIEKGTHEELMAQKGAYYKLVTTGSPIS

Row | Compound | NTCP inhibition (NTCP; CHO cells expressing NTCP, up to 25 μM) | IC50 (NTCP; taurocholate uptake, read-out: NTCP estimated IC50) | inhibition of NTCP-mediated probe substrate transport (NTCP) | effect on bile acid excretion ([1]; 10.7× estimated unbound liver Cmax) | BA-LRA score [2] | effect on urea (mitochondrial function) [3] | Pivotal conventional nonclinical toxicology study liver findings (dog) | exposure margin (dog) | effect on bile acid excretion ([1]; 4.4× estimated unbound liver Cmax (highest testable concentration, solubility))
1 | O=C(N[C@@H]1CC[C@@H](c2cccc(F)c2F)CN(CC(F)(F)F)C1=O)N1CCC(n2c(=O)[nH]c3ncccc32)CC1 [Telcagepant] | > 50% | 19.4 µM | inhibited | No effect on bile acid excretion | > 0.2 | No effect on urea |  |  | 
2 | O=C(CN1C(=O)C2(CCCC2)NC[C@H]1c1cc(F)cc(F)c1)Nc1ccc2c(c1)C[C@@]1(C2)C(=O)Nc2ncccc21 [MK-3207] |  |  | No inhibition was observed |  | > 0.2 | No effect on urea | slight periportal vacuolation with < 4× ALT/AST associated with excessive body weight loss | 17 × | no significant impact was observed on biliary excretion
